The source of these data is patent US8148516B2, “Flowcell systems for single molecule detection” (Pacific Biosciences of California, Inc., priority 2000, dated 2012).

SMILES strings stand for the structures.

The nature of this data set: Capillary electrophoresis of dTTP and dTDP: effect of Mg++ on electrophoretic mobility. The class given is physicochemical. To be noted: 50 mM Tris-acetate pH 8.0, 60 mM KCl; for effect of Mg++ on electrophoretic mobility: MgCl2 3-40 mM. As to the method: The effect of Mg^++ on the electrophoretic mobility of dTTP and dTDP was determined by capillary electrophoresis. Electrophoresis buffer contained 50 mM Tris-acetate pH 8.0, 60 mM KCl, and various concentrations of MgCl2 (3, 4, 6, 10, 15, 25 and 40 mM). The sample contained 0.5 mM nucleotide (dTTP or dTDP; Sigma) and 0.8 mM mesityl oxide (electroneutral marker; Sigma). The samples were analyzed by capillary electrophoresis (Hewlett Packard) using an uncoated fused silica capillary (40 cm from injection end to detection zone). Voltage was 8.5 kV and peaks were monitored by optical absorbance at 260 nm. Electrokinetic velocity of each sample peak was calculated by dividing distance (40 cm) by elution time. Electroosmotic flow (EOF) of the bulk buffer is taken as the velocity of the mesityl oxide marker. Nucleotide electrophoretic velocity is the nucleotide electrokinetic velocity minus EOF. Nucleotide electrophoretic velocities are plotted as a function of Mg^++ concentration (FIG. 11A).

As to `Cc1cn([C@H]2C[C@H](O)[C@@H](COP(=O)(O)OP(=O)(O)O)O2)c(=O)[nH]c1=O` [dTDP], the “effect of Mg++ on electrophoretic mobility” value is recorded as “from more negative to less negative”.
As for `Cc1cn([C@H]2C[C@H](O)[C@@H](COP(=O)(O)OP(=O)(O)OP(=O)(O)O)O2)c(=O)[nH]c1=O` [dTTP], the “effect of Mg++ on electrophoretic mobility” value was “from more negative to less negative”. Further, the “electrophoretic mobility compared with dTDP” value (3-40 mM MgCl2, 8.5 kV) is “more negative electrophoretic mobility than the dTDP”.
